# Where a name gives a salt, the structure may show the parent alone.
# Legend:
# [1] = system: motor coordination in rotarod test in male SD rats; experiment: Motor coordination in rotarod test; assay type: in vivo, rat (Sprague-Dawley)
# Protocol: FIG. 9 is a bar graph that represents effect of Compound I (3 mg/kg), thiocolchicoside (0.01 mg/kg) and their combination on motor coordination in rotarod test in male SD rats.
# FIG. 19 is a bar graph that represents effect of combination of thiocolchicoside (0.01 mg/kg) and Compound II (0.13 mg/kg) and their combination on motor coordination in rotarod test in male SD rats.
# [2] = system: Freund's Complete Adjuvant (FCA)-induced inflammatory mechanical hyperalgesia in male SD rats; experiment: FCA-induced inflammatory mechanical hyperalgesia (Randall-Sellitto paw pressure);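 note: left hind paw withdrawal threshold (g) to rising pressure on an analgesymeter, FCA injected intraplantar 24 h earlier, thresholds taken before and 0.5, 1, 2 and 4 h after oral dosing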
# Protocol: Materials: FCA containing 1 mg/ml of heat killed and dried Mycobacterium tuberculosis (H37RA strain) emulsified in mineral oil and mannide mono-oleate; Male SD rats weighing 170-220 g; Paw Pressure Analgesymeter (37215, Ugo Basile, Comerio, Italy); Compound I potassium; and Diclofenac sodium
# Naïve withdrawal thresholds of the left hind paw to an increasing pressure (g) stimulus were measured in rats using the analgesymeter. FCA was injected (30 μl) into the plantar region of left paw of rats to induce the inflammatory hyperalgesia. Mechanical hyperalgesia (24 h after FCA injection) was assessed by measuring hind paw withdrawal thresholds.
# The post-dose paw withdrawal thresholds were measured at 0.5, 1, 2 & 4 h after oral administration. The percentage (%) reversal of mechanical hyperalgesia was calculated as per standard procedure.
# Naïve withdrawal thresholds of the left hind paw to an increasing pressure (g) stimulus were measured in rats using the analgesymeter. Freund's Complete Adjuvant (FCA) was injected (30 μl) into the plantar region of left paw of rats to induce the inflammatory hyperalgesia. Mechanical hyperalgesia (24 h after FCA injection) was assessed both pre- & post-dosing of drugs by measuring hind paw withdrawal thresholds. […] The post-dose paw withdrawal thresholds were measured at 0.5, 1, 2 & 4 h after oral administration. The % reversal of mechanical hyperalgesia was calculated.
# Naïve withdrawal thresholds of the left hind paw to an increasing pressure (g) stimulus were measured in rats using the analgesymeter.
# [3] = system: FCA-induced thermal hyperalgesia in male SD rats; experiment: FCA-induced thermal hyperalgesia (Hargreaves apparatus); assay type: in vivo, rat (Sprague-Dawley); conditions: diclofenac sodium 6 mg/kg p.o. alone; 0.5-4 h post-dose; Example 16, Table 19, FIG. 22
# Protocol: The % reversal of mechanical/thermal hyperalgesia was calculated.
# [4] = system: Streptozotocin (STZ)-induced diabetic peripheral neuropathic hyperalgesia in male SD rats; experiment: Streptozotocin-induced diabetic peripheral neuropathic hyperalgesia; assay type: in vivo, rat (Sprague-Dawley)
# Protocol: (§1) Streptozotocin (STZ)-induced neuropathic hyperalgesia in rats is a model to screen potential therapeutics for diabetic painful neuropathy in human patients. Streptozotocin was dissolved in freshly prepared cold citrate buffer (0.1 M, pH—4.4). Diabetes was induced in overnight fasted male SD rats (weighing 250-300 g) by a single intraperitoneal injection of Streptozotocin (Sigma, 55 mg/kg, i.p). […] On the day of the experiment (13th day after STZ injection) rats were assessed for mechanical hyperalgesia using Randall-Sellito paw pressure analgesymeter. Animals were weighed and grouped as described in Table 9.
# Rats were orally dosed with vehicle, duloxetine hydrochloride, Compound I potassium salt and combination (Duloxetine+Compound I).
# as §1, with “pH —4.4).” for “pH—4.4).”, “Sprague Dawley” for “SD”, “rats” for “rats (weighing 250-300 g)”, “analgesymeter.” for “analgesymeter. Animals were weighed and grouped as described in Table 9.”
# Rats were orally dosed with vehicle, different doses of duloxetine hydrochloride, Compound II disodium salt and combinations (duloxetine+Compound II—simultaneously). The post-dose paw withdrawal thresholds were measured at 1, 2 & 4 h after oral administration. […] Animals were weighed and grouped as described in Table 16.
# Rats were orally dosed with vehicle, different doses of duloxetine hydrochloride, Compound III disodium salt and combinations (duloxetine+Compound III—simultaneously). […] Animals were weighed and grouped as described in Table 21.
# [5] = system: Monosodium Iodo Acetate (MIA)-osteoarthritis induced weight bearing deficit in male SD rats; experiment: MIA-osteoarthritis induced weight bearing deficit (incapacitance meter); assay type: in vivo, rat (Sprague-Dawley); conditions: 0.5-4 h post-dose, Example 3, Table 5, FIG. 5
# Protocol: After recording basal weight borne by both hind limbs (naïve) using the incapacitance meter (IITC Inc), rats were briefly anaesthetized with 2% isoflurane and O2 mixture and given intraarticular (i.a.) injection of MIA (5 mg per rat in […]) through the intrapatellar ligament of the left knee (Combe et al., 2004). MIA was dissolved in 0.9% sterile saline and administered using a 26½ gauge needle. Contralateral knees were injected intra-articularly with 50 μl of 0.9% sterile saline. Weight bearing deficit in ipsilateral paw was assessed 20 h post MIA injection by measuring weight borne by both hind limbs.
# On the day of the experiment (20 h after MIA injection), rats were evaluated for pre-dose weight bearing deficit to assess the effect of MIA. After regrouping the rats after randomization, the pre- & post-dose weight bearing deficit, was assessed for both hind limbs. Rats were orally dosed with vehicle, naproxen, compound I potassium salt and combination (Naproxen+Compound I—simultaneously). The effect of compound I, naproxen and their combination, in MIA-osteoarthritis induced weight bearing deficit in male SD rats, was evaluated using Incapacitance meter (IITC Inc.) fitted with a perspex chamber designed so that each hind paw rat rests on separate transducer pads to record animal's weight on each paw. […] The % reversal of weight bearing deficit was calculated as per standard procedure. […]
# [6] = system: CCI-induced neuropathic hyperalgesia in male SD rats; experiment: Chronic constriction injury (CCI)-induced mechanical hyperalgesia; assay type: in vivo, rat (Sprague-Dawley); conditions: 0.5-4 h post-dose, Example 8, Table 11, FIG. 12
# Protocol: The objective of this experiment was to study the combinational effect of Compound I and pregabalin in CCI-induced neuropathic hyperalgesia in male SD rats. Male SD rats weighing 180-220 g were grouped according to Table 11. Rats were anesthetized using ketamine/xylazine (40/5 mg/kg, i.p.) and the left sciatic nerve was exposed at mid-thigh level through a small incision. Four loose ligatures of 4-0 chromic cat gut at 1 mm space were placed around the sciatic nerve after the bifurcation of common sciatic nerve. After 6-7 days, mechanical hyperalgesia was assessed by measuring hind paw withdrawal thresholds to an increasing pressure (g) stimulus, using the Randall-Sellitto analgesymeter (Ugo Basile, Italy), fitted with a wedge-shaped probe.
# Rats were orally dosed with vehicle, pregabalin, Compound I potassium salt and combination (Pregabalin+Compound I).
# [7] = system: Spinal nerve ligation (SNL) injury-induced neuropathic hyperalgesia in male SD rats; experiment: Spinal nerve ligation (SNL)-induced mechanical hyperalgesia; assay type: in vivo, rat (Sprague-Dawley); conditions: 0.5-4 h post-dose, Example 15, Table 18, FIG. 20
# Protocol: Spinal nerve ligation (SNL) injury in rats induces neuropathic mechanical hyperalgesia in this Chung's model. Rats were anesthetized using ketamine/xylazine (40/5 mg/kg, i.p.) and a 2-3 cm longitudinal incision was made in the lumbar spinal region, 5-6 mm lateral to the midline and above the lower lumbar vertebrae and the rostral sacrum, exposing the paraspinal muscles on the left side. The paraspinal muscles were isolated using blunt-tipped scissors for exposing L6 transverse process. The L6 transverse process was cut with the help of blunt-tipped scissor to visualize the left L5 spinal nerves. The nerves were cleaned from adhering tissue and were tightly ligated using 7.0 silk sutures (EP 1.5, Pearsalls Ltd) (Somerset, UK). The wound was closed with muscle & skin sutures and Povidone-iodine solution was applied every day till complete healing. […] Mechanical hyperalgesia was assessed by measuring hind paw withdrawal to an increasing pressure (g) stimulus, using an analgesymeter (Ugo Basile, Italy) fitted with a wedge-shaped probe.
# Mechanical hyperalgesia was assessed both pre- & post-dosing of drugs by measuring hind paw withdrawal thresholds. […] The post-dose paw withdrawal thresholds were measured at 0.5, 1, 2 & 4 h after oral administration. The % reversal of mechanical hyperalgesia was calculated as per standard procedure.
# [8] = system: MIA-osteoarthritis induced mechanical punctate allodynia in male SD rats; experiment: MIA-induced mechanical punctate allodynia (dynamic von Frey); assay type: in vivo, rat (Sprague-Dawley); conditions: naproxen 3 mg/kg p.o. alone; 0.5-4 h post-dose; Example 19, Table 22, FIG. 25
# Protocol: MIA was dissolved in 0.9% sterile saline and administered using a 26½ gauge needle. Contralateral knees were injected intra-articularly with 50 μl of 0.9% sterile saline. On the day of the experiment (20 h after MIA injection), rats were evaluated for pre-dose mechanical punctate allodynia to assess the effect of MIA. After regrouping the rats after randomization, the pre- & post-dose mechanical allodynia was assessed for both hind paws. […] The % reversal of punctate allodynia was calculated as per standard procedure. Animals were weighed and grouped as described in Table 22.
smiles,measurement,setting,value
COc1c(O[C@@H]2O[C@H](CO)[C@@H](O)[C@H](O)[C@H]2O)cc2c(c1OC)-c1ccc(SC)c(=O)cc1[C@@H](NC(C)=O)CC2 [thiocolchicoside],motor deficits (rotarod),"[1]; thiocolchicoside 0.01 mg/kg alone, Example 6, FIG. 9",did not produce any motor deficits
same,motor deficits (rotarod),"[1]; thiocolchicoside 0.01 mg/kg alone, n=8, Example 14, FIG. 19",did not produce any motor deficits
same,maximal % reversal of hyperalgesia,"[2]; thiocolchicoside 0.01 mg/kg p.o. alone, Example 6, Table 8, FIG. 8",15%
same,maximal % reversal of hyperalgesia,"[2]; thiocolchicoside 0.01 mg/kg p.o. alone, Example 14, Table 17, FIG. 18",14%
O=C(O)Cc1ccccc1Nc1c(Cl)cccc1Cl [diclofenac sodium],maximal % reversal of hyperalgesia,"[2]; diclofenac sodium 6 mg/kg p.o. alone, 0.5-4 h post-dose, Example 1, Table 1, FIG. 1",15%
same,maximal % reversal of hyperalgesia,"[2]; diclofenac sodium 6 mg/kg p.o. alone, Example 9, Table 12, FIG. 13",14%
same,maximal % reversal of mechanical hyperalgesia,"[2]; diclofenac sodium 6 mg/kg p.o. alone, Example 16, Table 19, FIG. 21",23%
same,maximal % reversal of hyperalgesia,"[2]; diclofenac sodium 8 mg/kg p.o. alone, Example 1, Table 2, FIG. 2",39%
same,maximal % reversal of thermal hyperalgesia,[3],27%
CNCC[C@H](Oc1cccc2ccccc12)c1cccs1 [duloxetine hydrochloride],maximal % reversal of hyperalgesia,"[4]; duloxetine hydrochloride 3 mg/kg p.o. alone, 0.5-4 h post-dose, Example 7, Table 9, FIG. 10",23%
same,maximal % reversal of hyperalgesia,"[4]; duloxetine hydrochloride 3 mg/kg p.o. alone, 0.5-4 h post-dose, Example 18, Table 21, FIG. 24",20%
same,maximal % reversal of hyperalgesia,"[4]; duloxetine hydrochloride 3 mg/kg p.o. alone, 1, 2 & 4 h post-dose, Example 13, Table 16, FIG. 17",17%
same,maximal % reversal of hyperalgesia,"[4]; duloxetine hydrochloride 10 mg/kg p.o. alone, Example 7, Table 10, FIG. 11",35%
"Cn1c(=O)c2c(CC(=O)Nc3nc(-c4ccc(F)c(C(F)(F)F)c4F)cs3)csc2n(C)c1=O [Compound I, N-{4-[2,4-difluoro-3-(trifluoromethyl)phenyl]-1,3-thiazol-2-yl}-2-(1,3-dimethyl-2,4-dioxo-1,2,3,4-tetrahydrothieno[2,3-d]pyrimidin-5-yl)acetamide]",maximal % reversal of weight bearing deficit,[5]; Compound I 1 mg/kg p.o. alone,8%
same,maximal % reversal of hyperalgesia,[6]; Compound I 3 mg/kg p.o. alone,22%
same,maximal % reversal of hyperalgesia,"[2]; Compound I 1 mg/kg p.o. alone, Example 1, Table 2, FIG. 2",15%
same,maximal % reversal of hyperalgesia,"[2]; Compound I 1 mg/kg p.o. alone, Example 2, Table 4, FIG. 4",10%
same,maximal % reversal of hyperalgesia,"[2]; Compound I 3 mg/kg p.o. alone, 0.5-4 h post-dose, Example 1, Table 1, FIG. 1",21%
same,maximal % reversal of hyperalgesia,"[2]; Compound I 3 mg/kg p.o. alone, Example 2, Table 3, FIG. 3",25%
same,maximal % reversal of hyperalgesia,"[2]; Compound I 3 mg/kg p.o. alone, Example 4, Table 6, FIG. 6",21%
same,maximal % reversal of hyperalgesia,"[2]; Compound I 3 mg/kg p.o. alone, Example 5, Table 7, FIG. 7",25%
same,maximal % reversal of hyperalgesia,"[2]; Compound I 3 mg/kg p.o. alone, Example 6, Table 8, FIG. 8",17%
same,maximal % reversal of hyperalgesia,"[4]; Compound I 1 mg/kg p.o. alone, Example 7, Table 10, FIG. 11",10%
same,maximal % reversal of hyperalgesia,"[4]; Compound I 3 mg/kg p.o. alone, 0.5-4 h post-dose, Example 7, Table 9, FIG. 10",26%
CC(C)C[C@H](CN)CC(=O)O [pregabalin],maximal % reversal of hyperalgesia,[7]; pregabalin 1 mg/kg p.o. alone,20%
same,maximal % reversal of hyperalgesia,[6]; pregabalin 1 mg/kg p.o. alone,14%
"Cn1nc2c(c1CC(=O)N=c1scc(-c3ccc(F)c(C(F)(F)F)c3F)n1COP(=O)(O)O)c(=O)n(C)c(=O)n2C [Compound II, 4-(2,4-difluoro-3-(trifluoromethyl)phenyl)-2-((2-(2,5,7-trimethyl-4,6-dioxo-4,5,6,7-tetrahydro-2H-pyrazolo[3,4-d]pyrimidin-3-yl)acetyl)imino)thiazol-3 (2H)-yl)methyl dihydrogen phosphate]",motor deficits (rotarod),"[1]; Compound II 0.13 mg/kg alone, n=8, Example 14, FIG. 19",did not produce any motor deficits
same,maximal % reversal of hyperalgesia,[7]; Compound II 0.13 mg/kg p.o. alone,18%
same,maximal % reversal of hyperalgesia,"[2]; Compound II 0.13 mg/kg p.o. alone, Example 9, Table 12, FIG. 13",21%
same,maximal % reversal of hyperalgesia,"[2]; Compound II 0.13 mg/kg p.o. alone, Example 10, Table 13, FIG. 14",22%
same,maximal % reversal of hyperalgesia,"[2]; Compound II 0.13 mg/kg p.o. alone, Example 11, Table 14, FIG. 15",14%
same,maximal % reversal of hyperalgesia,"[2]; Compound II 0.13 mg/kg p.o. alone, Example 12, Table 15, FIG. 16",22%
same,maximal % reversal of hyperalgesia,"[2]; Compound II 0.13 mg/kg p.o. alone, Example 14, Table 17, FIG. 18",14%
same,maximal % reversal of hyperalgesia,"[4]; Compound II 0.04 mg/kg p.o. alone, 1, 2 & 4 h post-dose, Example 13, Table 16, FIG. 17",13%
CC(=O)Nc1ccc(O)cc1 [paracetamol],maximal % reversal of hyperalgesia,"[2]; paracetamol 60 mg/kg p.o. alone, Example 5, Table 7, FIG. 7",28%
same,maximal % reversal of hyperalgesia,"[2]; paracetamol 60 mg/kg p.o. alone, Example 12, Table 15, FIG. 16",17%
Cc1cnc(NC(=O)C2=C(O)c3ccccc3S(=O)(=O)N2C)s1 [meloxicam],maximal % reversal of hyperalgesia,"[2]; meloxicam 0.5 mg/kg p.o. alone, Example 4, Table 6, FIG. 6",21%
same,maximal % reversal of hyperalgesia,"[2]; meloxicam 0.5 mg/kg p.o. alone, Example 11, Table 14, FIG. 15",19%
COc1ccc2cc([C@H](C)C(=O)O)ccc2c1 [naproxen],maximal % reversal of weight bearing deficit,[5]; naproxen 10 mg/kg p.o. alone,39%
same,maximal % reversal of mechanical punctate allodynia,[8],18%
same,maximal % reversal of hyperalgesia,"[2]; naproxen 3 mg/kg p.o. alone, Example 2, Table 3, FIG. 3",23%
same,maximal % reversal of hyperalgesia,"[2]; naproxen 3 mg/kg p.o. alone, Example 10, Table 13, FIG. 14",18%
same,maximal % reversal of mechanical hyperalgesia,"[2]; naproxen 3 mg/kg p.o. alone, Example 17, Table 20, FIG. 23",17%
same,maximal % reversal of hyperalgesia,"[2]; naproxen 5 mg/kg p.o. alone, Example 2, Table 4, FIG. 4",32%

# Reference: US9532988B2, “Pharmaceutical composition comprising a TRPA1 antagonist and an analgesic agent” (GLENMARK PHARMACEUTICALS S.A., priority 2013, dated 2017)
